Reference: patent US10870670B2, “Preparation of (S,S)-secoisolariciresinol diglucoside and (R,R)-secoisolariciresinol diglucoside” (The Trustees of the University of Pennsylvania, priority 2013, dated 2020)

How the values were obtained:
Assay type in all cases: biochemical
[1] = Reducing power activity assay (ferricyanide reduction, absorbance at 700 nm); details: regression line over 1-100 μM; sodium phosphate buffer pH 6.6; n=3; read-out: EC50 for reducing power (mean±std. dev.)
Experimental: The determination of reducing power was performed as described by Yen and Der (J. Am. Oil Chem. Soc. 1993, 70, 383). Reducing power assay determines the reducing potential of the test compound which reacts with potassium ferricyanide (Fe^+3) to form potassium ferrocyanide (Fe^+2), which subsequently reacts with ferric chloride to produce a ferric-ferrous complex that has maximum absorption at 700 nm. Various concentrations (1-500 μM) of test compounds were taken in sodium phosphate buffer (0.1 M, pH 6.6) in 96-well microplates and mixed with potassium ferricyanide (1%). Samples were incubated at 50° C. and equal volume of 10% trichloroacetic acid was added. The upper layer was mixed with deionized water (1:1:2) and ferric chloride (0.1%). The absorbance was read at 700 nm on a Bio-Rad microplate reader (Bio-Rad, Hercules, Calif.). The increase in absorbance indicates increase in reducing power.
The reducing powers of synthetic (S,S)-SDG-1, synthetic (R,R)-SDG-2, natural (S,S)-SDG-1, ascorbic acid, and α-tocopherol were determined by the reduction of K3FeCN6 in the presence of FeCl3, as measured by the absorbance of the resulting ferric-ferrous complex (FIG. 2). […] This allowed the half maximal effective concentration (EC50) for reducing power to be calculated (FIG. 3).

[2] = DPPH radical scavenging assay; details: for EC50: regression lines over 5-100 μM, 250 μM DPPH, Tris buffer pH 7.4, 20 min, n=3, read-out: DPPH free radical scavenging activity EC50
Experimental: The ability of the SDGs to scavenge DPPH radicals was assessed as described by Moree et al. (Free Rad. Anitox. 2011, 1, 31) with minor modifications for use in microplates. Briefly, different concentrations of SDG isomers and other test compounds were incubated with 200 μL medium in 96-well microplates containing 0.1 M Tris buffer (pH 7.4) and 250 μM DPPH solution, and kept in the dark for 20 min. The absorbance was read at 517 nm in a Bio-Rad microplate reader. Ascorbic acid and α-tocopherol were used as known antioxidants for comparison. The radical scavenging activity was measured as a decrease in the absorbance of DPPH and calculated using the following equation: Percentage inhibition=[O.D.control−O.D.treated/O.D.control]×100.
The free radical scavenging activities of synthetic (S,S)-SDG-1 and (R,R)-SDG-2 were determined using a 2,2-diphenyl-1-pierylhydrazyl (DPPH) free radical scavenging assay and was compared to those of natural (S,S)-SDG-1, ascorbic acid, and α-tocopherol (FIG. 4). […] Establishing regression lines for the potentials at low- and mid-concentration ranges (5-100 μM) allowed the free radical EC50 scavenging activity of these compounds to be determined.

[3] = Hydroxyl radical scavenging potential (HORAC assay); details: for Antioxidant capacity Against Hydroxyl Radicals (GAE): HORAC assay, Fenton reaction, gallic acid equivalent, mean±SD, n=3; for Inhibition of fluorescein oxidation by hydroxyl radicals relative to gallic acid: HORAC, gallic acid standard, concentration-dependent
Experimental: The ability of SDGs to scavenge hydroxyl radicals in a chemical system was evaluated using HORAC Assay kit (# TA30) obtained from Oxford Biomedical Research. Hydroxyl radicals were generated from hydrogen peroxide by Fenton reaction. Oxidation of fluorescein was measured on a fluorescence microplate reader. Antioxidants inhibit fluorescein oxidation. Gallic acid was used as a standard for calibration curve. Calculations used SDG concentration that fit the linear part of the calibration curve. SDG concentrations were used in the range of […]. Antioxidant capacity against hydroxyl radicals was expressed as gallic acid equivalent (GAE).
(§1) The ability of synthetic (S,S)-SDG-1 and (R,R)-SDG-2 to scavenge hydroxyl and peroxyl radicals as manifested by their inhibition of the oxidation of fluorescein was assessed by the hydroxyl radical averting capacity (HORAC, gallic acid standard) and peroxyl radical absorbance capacity assays (ORAC, trolox standard), respectively (Table 1). […] However, synthetic (S,S)-SDG-1 activity differed from natural (S,S)-SDG-1, likely due to trace impurities.
(§2) In Table 1, hydroxyl radicals were generated from hydrogen peroxide by Fenton reaction. Peroxyl radicals were generated by AAPH (2,2′-azobis(2-amidinopropane) dihydrochloride). Oxidation of fluorescein was measured. Calculations used SDG concentrations that fitted the linear part of the calibration curve. The results are presented as mean±standard deviation (n=3).

[4] = Peroxyl radical scavenging potential (ORAC assay); details: for Antioxidant capacity Against Peroxyl Radicals (TE): ORAC assay, AAPH-generated radicals, Trolox equivalents, mean±SD, n=3; for Inhibition of fluorescein oxidation by peroxyl radicals relative to trolox: ORAC, trolox standard, AAPH
Experimental: The ability of SDGs to scavenge peroxyl radicals in a chemical system was evaluated using an ORAC assay kit (# STA345) obtained from Cell Biolab (San Diego, Calif.). Peroxyl radicals were generated by AAPH (2,2′-azobis(2-amidinopropanedihydrochloride). Oxidation of fluorescein was measured using a fluorescence microplate reader. Antioxidants inhibit fluorescein oxidation. Trolox was used as a standard for calibration curve. Calculations used SDG concentrations that fit the linear part of the calibration curve. SDG concentrations were used in the range of 8 μM-1 mM. Antioxidant capacity against peroxyl radicals was expressed as Trolox equivalent (TE).
as §1, §2

Row | Compound | EC50 [1] [µM] | EC50 [2] [µM] | Antioxidant capacity Against Hydroxyl Radicals (GAE) [3] [GAE] | Antioxidant capacity Against Peroxyl Radicals (TE) [4] [TE] | Inhibition of fluorescein oxidation by peroxyl radicals relative to trolox [4] | Inhibition of fluorescein oxidation by hydroxyl radicals relative to gallic acid [3] | DPPH inhibition at higher concentrations ([2]; 250-500 μM)
1 | O=C1O[C@H]([C@@H](O)CO)C(O)=C1O [ascorbic acid, reference compound] | 1130 ± 88.8 | 440 ± 11.8 | – | – | – | – | –
2 | COc1cc(C[C@@H](CO[C@@H]2O[C@H](CO)[C@@H](O)[C@H](O)[C@H]2O)[C@H](CO[C@@H]2O[C@H](CO)[C@@H](O)[C@H](O)[C@H]2O)Cc2ccc(O)c(OC)c2)ccc1O [synthetic (R,R)-SDG-2, (R,R)-secoisolariciresinol diglucoside] | 332 ± 21.2 | 124 ± 8.67 | 1.96 ± 0.27 | 2.20 ± 0.10 | two-fold increase in potency over the trolox standard | two-fold higher than gallic acid | –
3 | COc1cc(C[C@H](CO[C@@H]2O[C@H](CO)[C@@H](O)[C@H](O)[C@H]2O)[C@@H](CO[C@@H]2O[C@H](CO)[C@@H](O)[C@H](O)[C@H]2O)Cc2ccc(O)c(OC)c2)ccc1O [synthetic (S,S)-SDG-1, (S,S)-secoisolariciresinol diglucoside] | 292 ± 27.7 | 158 ± 21.3 | 2.09 ± 0.16 | 3.03 ± 0.04 | two-fold increase in potency over the trolox standard | two-fold higher than gallic acid | significantly lower than those exerted by (R,R)-SDG-2 and natural (S,S)-SDG-1

Continued by falling EC50 [1], values first:

Row | EC50 [1] [µM] | EC50 [2] [µM] | Compound | Antioxidant capacity Against Hydroxyl Radicals (GAE) [3] [GAE] | Antioxidant capacity Against Peroxyl Radicals (TE) [4] [TE] | Inhibition of fluorescein oxidation by peroxyl radicals relative to trolox [4] | Inhibition of fluorescein oxidation by hydroxyl radicals relative to gallic acid [3] | DPPH inhibition at higher concentrations ([2]; 250-500 μM)
4 | 945 ± 148 | 133 ± 12.6 | Cc1c(C)c2c(c(C)c1O)CC[C@@](C)(CCC[C@H](C)CCC[C@H](C)CCCC(C)C)O2 [α-tocopherol, reference compound] | – | – | – | – | –
5 | 275 ± 13.2 | 83.9 ± 2.8 | COc1cc(C[C@H](CO[C@@H]2O[C@H](CO)[C@@H](O)[C@H](O)[C@H]2O)[C@@H](CO[C@@H]2O[C@H](CO)[C@@H](O)[C@H](O)[C@H]2O)Cc2ccc(O)c(OC)c2)ccc1O [natural (S,S)-SDG-1, (S,S)-secoisolariciresinol diglucoside] | 3.68 ± 0.27 | 2.55 ± 0.11 | two-fold increase in potency over the trolox standard | – | –
